Values joined by “and” are separate entries in the source; they are usually repeats but may differ in a detail not shown here. Equal values may be shown once.
Legend:
[1] = target: DRD2 (D2 long receptor) (Homo sapiens, UniProt P14416); test: β-arrestin2 recruitment (Tango), HTLA cells; assay type: cell-based; conditions: for response, concentration-response data point (replicates): Fig_S10a, drug alone
[2] = test system: 320 non-olfactory GPCRs; assay type: cell-based; conditions: compound at 1 μM
[3] = target: DRD2 F1103.28A (Homo sapiens, UniProt P14416, F110A); assay type: binding; set-up: expressed in transfected cells; host or cells: HEK293T (ATCC CRL-11268); conditions: DRD2 F1103.28A; read-out: Ki
Sequence of DRD2 F1103.28A (P14416 whole entry F110A): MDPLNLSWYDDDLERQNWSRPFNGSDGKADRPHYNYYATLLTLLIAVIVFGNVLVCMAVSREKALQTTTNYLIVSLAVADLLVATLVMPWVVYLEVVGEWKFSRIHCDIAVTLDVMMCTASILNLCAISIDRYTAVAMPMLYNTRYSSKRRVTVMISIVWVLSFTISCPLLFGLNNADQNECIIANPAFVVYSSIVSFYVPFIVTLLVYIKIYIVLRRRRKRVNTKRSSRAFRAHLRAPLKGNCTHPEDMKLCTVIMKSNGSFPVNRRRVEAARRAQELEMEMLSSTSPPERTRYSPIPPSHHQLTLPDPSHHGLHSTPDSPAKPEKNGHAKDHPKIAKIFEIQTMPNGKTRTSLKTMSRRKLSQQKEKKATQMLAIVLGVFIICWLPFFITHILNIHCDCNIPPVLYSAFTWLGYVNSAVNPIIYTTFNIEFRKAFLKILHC

Sequence of DRD2 (D2 long receptor) (P14416 whole entry): as the sequence (P14416 whole entry F110A) above, with A110F counted along it

In the case of `CCOc1cccc2cc([C@H](C)NCC3(O)CCCCC3)oc12` [O4SE6], the “β-arrestin2 recruitment agonist activity” value ([1]; DRD2, Tango) is reported as “selective DRD2 agonist”, the EC50 ([1]; DRD2, β-arrestin2 recruitment (Tango), read-out: EC50 ± SEM) is reported as 1050 nM and the “response, concentration-response data point (replicates)” value (shortened to “response … (replicates)”) ([1]; Log[Drug] -5) is reported as 73.5777 and 57.7969 and 60.7943 and 65.7822 and 71.9755 and 71.4753 and 62.0106. For the same molecule, the “response … (replicates)” value ([1]; Log[Drug] -5.52) was 50.6787 and 47.7474 and 41.401 and 56.0167 and 52.8546 and 51.367 and 55.6817, the “response … (replicates)” value ([1]; Log[Drug] -6) was 39.3966 and 41.1099 and 37.2084 and 41.7585 and 38.5021 and 38.079 and 42.2149 and the “response … (replicates)” value ([1]; Log[Drug] -6.52) was 17.548 and 17.9218 and 22.2395 and 30.2893 and 22.7451 and 19.4102 and 21.7916. For the same molecule, the “response … (replicates)” value ([1]; Log[Drug] -7) was 9.564 and 7.739 and 7.708 and 7.415 and 7.649 and 7.113 and 9.501, the “response … (replicates)” value ([1]; Log[Drug] -7.52) was 5.75 and 5.841 and 5.282 and 5.619 and 6.782 and 5.749 and 5.8801 and the “response … (replicates)” value ([1]; Log[Drug] -8) was 5.434 and 5.45 and 5.389 and 5.042 and 5.329 and 5.148 and 5.345. For the same molecule, the “response … (replicates)” value ([1]; Log[Drug] -8.52) was 5.277 and 5.01 and 4.9419 and 4.98 and 5.0858 and 5.308 and 5.178, the “response … (replicates)” value ([1]; Log[Drug] -9) was 5.4097 and 5.385 and 5.128 and 4.863 and 4.947 and 4.805 and 4.8829 and the “response … (replicates)” value ([1]; Log[Drug] -9.52) was 5.139 and 4.887. The “response … (replicates)” value ([1]; Log[Drug] -10) was 5.431 and 4.786 and 4.659 and 4.856 and 4.756 and 4.79 and 4.8682, the “response … (replicates)” value ([1]; Log[Drug] -10.52) was 5.022 and 4.798 and 4.776 and 4.763 and 4.86 and 4.945 and 4.841 and the “response … (replicates)” value ([1]; Log[Drug] -11) was 4.915 and 4.765 and 4.615 and 4.7302 and 4.774 and 4.749 and 4.971. For the same molecule, the “response … (replicates)” value ([1]; Log[Drug] -11.52) was 4.946 and 4.662 and 4.627 and 4.695 and 4.751 and 4.656 and 4.732, the “response … (replicates)” value ([1]; Log[Drug] -12) was 4.887 and 4.582 and 4.674 and 4.754 and 4.726 and 4.751 and 4.811 and the Emax ([1]; HTLA, read-out: Emax relative to quinpirole response, DRD2, Tango) was 71.3%. The “β-arrestin2 recruitment response at DRD2 (source data, replicate values)” value (shortened to “β-arrestin2 recruitment response at DRD2”) ([1]; Log[Drug] -6) was 82.8973, the “β-arrestin2 recruitment response at DRD2” value ([1]; Log[Drug] -6.52) was 72.8482 and 85.473 and 74.6038 and 82.6009 and 103.942 and 82.378 and 70.1593 and 68.4699 and 74.397 and the “β-arrestin2 recruitment response at DRD2” value ([1]; Log[Drug] -7) was 71.4846 and 69.3009 and 62.1089 and 68.8602 and 55.9009 and 59.7861 and 54.6819 and 54.8285 and 54.3284. The “β-arrestin2 recruitment response at DRD2” value ([1]; Log[Drug] -7.52) was 50.7715 and 50.9759 and 58.0792 and 57.6214 and 43.2407 and 45.9376 and 55.9749 and 62.7315 and 56.5853, the “β-arrestin2 recruitment response at DRD2” value ([1]; Log[Drug] -8) was 39.7841 and 36.3747 and 29.4664 and 31.1292 and 29.8397 and 30.2988 and 27.2382 and 26.622 and 26.0732 and the “β-arrestin2 recruitment response at DRD2” value ([1]; Log[Drug] -8.52) was 13.2168 and 14.3867 and 13.161 and 13.9303 and 10.9069 and 10.856 and 10.5462 and 11.4912 and 11.2421. The “β-arrestin2 recruitment response at DRD2” value ([1]; Log[Drug] -9) was 7.123 and 6.617 and 6.837 and 5.043 and 6.064 and 6.895 and 5.588 and 6.122 and 5.826, the “β-arrestin2 recruitment response at DRD2” value ([1]; Log[Drug] -9.52) was 5.908 and 5.15 and 5.772 and 5.0023 and 4.872 and 4.927 and 5.017 and 5.057 and 5.0924 and the “β-arrestin2 recruitment response at DRD2” value ([1]; Log[Drug] -10) was 5.347 and 5.121 and 5.289 and 4.982 and 4.774 and 4.763 and 4.918 and 4.901 and 4.8503. For the same molecule, the “β-arrestin2 recruitment response at DRD2” value ([1]; Log[Drug] -10.52) was 5.092 and 5.033 and 5.133 and 4.671 and 4.683 and 4.718 and 4.817 and 4.868 and 4.747, the “β-arrestin2 recruitment response at DRD2” value ([1]; Log[Drug] -11) was 5.0524 and 5.024 and 4.843 and 4.786 and 4.868 and 4.603 and 4.715 and 4.851 and 5.108 and the “β-arrestin2 recruitment response at DRD2” value ([1]; Log[Drug] -11.52) was 4.975 and 5.004 and 4.993 and 4.845 and 4.81 and 4.615 and 4.945 and 4.7318 and 4.6555. The “agonism across 320 nonolfactory GPCRs” value [2] was “only DRD2 activity was observed” and the Ki [3] was 520 nM.
